COc1ccc(C(=O)O)cc1
solubility (mole fraction)
Conditions | 283.15 K | 288.15 K | 293.15 K | 298.15 K | 303.15 K | 308.15 K | 313.15 K | 318.15 K | 323.15 K | 328.15 K
in 2-butanone | 0.0107 | 0.0128 | 0.0149 | 0.0169 | 0.0198 | 0.023 | 0.0266 | 0.0298 | 0.0343 | 0.0394
in THF | 0.0483 | 0.0518 | 0.0562 | 0.0621 | 0.0671 | 0.0731 | 0.078 | 0.085 | 0.0923 | 0.0991
in acetone | 0.0129 | 0.0153 | 0.0173 | 0.0197 | 0.0224 | 0.026 | 0.0298 | 0.032 | 0.0344 | 0.0368
in cyclohexanone | 0.0187 | 0.0203 | 0.022 | 0.025 | 0.0292 | 0.034 | 0.0397 | 0.0449 | 0.0507 | 0.059
in ethyl formate | 0.00442 | 0.00508 | 0.00606 | 0.00738 | 0.00889 | 0.0114 | 0.0135 | 0.0152 | 0.0178 | 0.0195
in ethylene glycol | 0.0022 | 0.00292 | 0.0038 | 0.0046 | 0.00546 | 0.00649 | 0.00768 | 0.00885 | 0.0105 | 0.0126
in isobutanol | 0.00435 | 0.00548 | 0.00691 | 0.00889 | 0.0116 | 0.0143 | 0.0178 | 0.0206 | 0.025 | 0.0288
in isopropyl acetate | 0.00637 | 0.00732 | 0.00833 | 0.00955 | 0.0116 | 0.0135 | 0.0156 | 0.0179 | 0.021 | 0.0246
in n-butanol | 0.00647 | 0.0077 | 0.00946 | 0.011 | 0.0133 | 0.0158 | 0.0186 | 0.0218 | 0.0255 | 0.0302
in n-butyl acetate | 0.00629 | 0.00719 | 0.00867 | 0.0106 | 0.0118 | 0.0136 | 0.0158 | 0.0178 | 0.021 | 0.0244
in n-pentanol | 0.00696 | 0.00853 | 0.0101 | 0.012 | 0.014 | 0.0169 | 0.0197 | 0.0234 | 0.0272 | 0.0313
in n-propyl acetate | 0.00732 | 0.00802 | 0.0089 | 0.0103 | 0.0118 | 0.0136 | 0.0155 | 0.0182 | 0.0209 | 0.0237
in sec-butanol | 0.00623 | 0.00789 | 0.0101 | 0.0121 | 0.0149 | 0.0182 | 0.0219 | 0.0274 | 0.0317 | 0.0362
in toluene | 0.00062 | 0.00086 | 0.0012 | 0.00152 | 0.00196 | 0.00252 | 0.00301 | 0.00369 | 0.0044 | 0.0054
